Inhibition data for 27 compounds are collected here from patent US20260174786A1, “A NITROGEN-CONTAINING SPIROCYCLIC COMPOUND, PHARMACEUTICAL COMPOSITION AND USE THEREOF” (Prime Gene Therapeutics Co., Ltd., priority 2022, published 2026).

By inhibition is commonly meant how much of the control response was suppressed. Read a low inhibition as a response near the control.

This test has as its target T1, hTRPV3 (Homo sapiens, UniProt Q8NET8).
T1 construct: expressed in transfected cells; host or cells: HEK-293
T1 sequence (Q8NET8 1-790): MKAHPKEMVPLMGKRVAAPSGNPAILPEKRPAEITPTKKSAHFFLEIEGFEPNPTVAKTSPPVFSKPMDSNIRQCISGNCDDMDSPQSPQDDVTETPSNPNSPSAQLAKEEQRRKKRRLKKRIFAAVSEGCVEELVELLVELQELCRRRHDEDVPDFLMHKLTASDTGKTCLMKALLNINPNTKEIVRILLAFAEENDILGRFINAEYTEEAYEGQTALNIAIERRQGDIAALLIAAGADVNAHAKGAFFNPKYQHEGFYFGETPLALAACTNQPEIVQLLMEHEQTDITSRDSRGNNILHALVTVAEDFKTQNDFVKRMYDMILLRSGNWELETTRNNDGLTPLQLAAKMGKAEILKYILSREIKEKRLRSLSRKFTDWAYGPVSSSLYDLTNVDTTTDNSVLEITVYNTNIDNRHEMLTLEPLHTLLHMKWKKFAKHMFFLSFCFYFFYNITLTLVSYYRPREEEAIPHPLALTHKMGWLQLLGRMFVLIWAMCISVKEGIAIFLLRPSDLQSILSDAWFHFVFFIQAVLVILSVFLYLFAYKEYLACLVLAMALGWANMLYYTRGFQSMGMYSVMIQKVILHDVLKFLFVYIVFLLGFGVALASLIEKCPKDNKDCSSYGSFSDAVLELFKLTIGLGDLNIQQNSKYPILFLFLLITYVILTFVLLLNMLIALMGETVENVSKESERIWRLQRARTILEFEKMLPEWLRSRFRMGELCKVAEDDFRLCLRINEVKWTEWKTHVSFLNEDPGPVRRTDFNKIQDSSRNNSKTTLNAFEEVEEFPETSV
As to the kind of experiment: Whole cell patch clamp inhibition rate test on HEK-293 cells instantaneously expressing TRPV3. Format: cell-based. Conditions: HEK293; hTRPV3, single concentration 0.3 μM. In a few lines: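 HEK-293 cells transiently transfected with TRPV3, recorded next-but-one day by whole-cell patch clamp at room temperature: holding −80 mV, ramp −100 to 100 mV over 100 ms every 5 s, peak current monitored. Ascending concentrations perfused, 5 min each; each cell its own control, at least two cells per concentration.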
`CC(C)c1ccccc1-c1ccc2c(c1)C(O)CC21CCN(C(=O)c2cc3cccn3cn2)C1` (stereo not drawn) [Example 76, (3-hydroxy-5-(2-isopropylphenyl)-2,3-dihydrospiro[indene-1,3′-pyrrolidine]-1′-yl)(pyrrolo[1,2-c]pyrimidin-3-yl)ketone] returned an inhibition at 0.3 µM of 50 to 70%.
To `CCc1ccccc1-c1ccc2c(c1)C(O)CC21CCN(C(=O)c2ccc(F)cn2)C1` (stereo not drawn) [Example 80, (5-(2-ethylphenyl)-3-hydroxy-2,3-dihydrospiro[indene-1,3′-pyrrolidine]-1′-yl)(5-fluoropyridin-2-yl) ketone] belongs 70 to 100%; to `O=C(c1ccc(F)cn1)N1CCC2(CC(O)c3cc(-c4ccccc4Cl)ccc32)C1` (stereo not drawn) [Example 81, (5-(2-chlorophenyl)-3-hydroxy-2,3-dihydrospiro[indene-1,3′-pyrrolidine]-1′-yl)(5-fluoropyridin-2-yl) ketone], 50 to 70%; to `O=C(c1ccc(F)cn1)N1CCC2(CC(O)c3cc(-c4ccccc4OC(F)(F)F)ccc32)C1` (stereo not drawn) [Example 82, (5-fluoropyridin-2-yl)(3-hydroxy-5-(2-(trifluoromethoxy)phenyl)-2,3-dihydrospiro[indene-1,3′-pyrrolidine]-1′-yl) ketone], 50 to 70%.
To `O=C(c1ccc(F)cn1)N1CCC2(CC(O)c3cc(-c4cc(F)ccc4C4CC4)ccc32)C1` (stereo not drawn) [Example 83, (5-(2-cyclopropyl-5-fluorophenyl)-3-hydroxy-2,3-dihydrospiro[indene-1,3′-pyrrolidine]-1′-yl)(5-fluoropyridin-2-yl) ketone] belongs 70 to 100%; to `O=C(c1ccc(F)cn1)N1CCC2(CC(O)c3cc(-c4ccccc4)ccc32)C1` (stereo not drawn) [Example 84, (5-fluoropyridin-2-yl)(3-hydroxy-5-phenyl-2,3-dihydrospiro[indene-1,3′-pyrrolidine]-1′-yl) ketone], 25 to 50%.
On to `Cc1cccc(-c2ccc3c(c2)C(O)CC32CCN(C(=O)c3ccc(F)cn3)C2)c1C1CC1` (stereo not drawn) [Example 85, (5-(2-cyclopropyl-3-methylphenyl)-3-hydroxy-2,3-dihydrospiro[indene-1,3′-pyrrolidine]-1′-yl)(5-fluoropyridin-2-yl) ketone], for which the inhibition at 0.3 µM is 70 to 100%.
Then `CCOc1ccccc1-c1ccc2c(c1)C(O)CC21CCN(C(=O)c2ccc(F)cn2)C1` (stereo not drawn) [Example 86, (5-(2-ethoxyphenyl)-3-hydroxy-2,3-dihydrospiro[indene-1,3′-pyrrolidine]-1′-yl)(5-fluoropyridin-2-yl) ketone], with 50 to 70%.
`O=C(c1ccc(F)cn1)N1CCC2(CC(O)c3cc(-c4cccc5c4CCC5)ccc32)C1` (stereo not drawn) [Example 87, (5-(2,3-dihydro-1H-indene-4-yl)-3-hydroxy-2,3-dihydrospiro[indene-1,3′-pyrrolidine]-1′-yl)(5-fluoropyridin-2-yl) ketone] returned an inhibition at 0.3 µM of 50 to 70%.
`CC(C)(C)c1ccccc1-c1ccc2c(c1)C(O)CC21CCN(C(=O)c2ccc(F)cn2)C1` (stereo not drawn) [Example 88, (5-(2-(tert-butyl)phenyl)-3-hydroxy-2,3-dihydrospiro[indene-1,3′-pyrrolidine]-1′-yl)(5-fluoropyridin-2-yl) ketone] yielded an inhibition at 0.3 µM of 70 to 100%.
Then `CC(C)(O)c1ccccc1-c1ccc2c(c1)C(O)CC21CCN(C(=O)c2ccc(F)cn2)C1` (stereo not drawn) [Example 89, (5-fluoropyridin-2-yl)(3-hydroxy-5-(2-(2-hydroxypropyl-2-)phenyl)-2,3-dihydrospiro[indene-1,3′-pyrrolidine]-1′-yl) ketone], with 25 to 50%; and `Cc1ncccc1-c1ccc2c(c1)C(O)CC21CCN(C(=O)c2ccc(F)cn2)C1` (stereo not drawn) [Example 91, (5-fluoropyridin-2-yl)(3-hydroxy-5-(2-methylpyridin-3-yl)-2,3-dihydrospiro[indene-1,3′-pyrrolidine]-1′-yl) ketone], with < 25%.
Regarding `O=C(c1ccc(F)cn1)N1CCC2(CC(O)c3cc(-c4cccc5ccccc45)ccc32)C1` (stereo not drawn) [Example 92, (5-fluoropyridin-2-yl)(3-hydroxy-5-(naphthalen-1-yl)-2,3-dihydrospiro[indene-1,3′-pyrrolidine]-1′-yl) ketone], the inhibition at 0.3 µM was in the range of 70 to 100%.
`CC(=O)c1cc(F)ccc1-c1ccc2c(c1)C(O)CC21CCN(C(=O)c2ccc(F)cn2)C1` (stereo not drawn) [Example 95, 1-(5-fluoro-2-(1′-(5-fluoropyridoyl)-3-hydroxy-2,3-dihydrospiro[indene-1,3′-pyrrolidine]-5-yl)phenyl)ethan-1-one]: the inhibition at 0.3 µM was in the range of 70 to 100%.
To `CC(C)c1ccccc1-c1ccc2c(c1)C1(CCN(C(=O)c3ccc(F)cn3)C1)CC2O` (stereo not drawn) [Example 103, (5-fluoropyridin-2-yl)(3-hydroxy-6-(2-isopropylphenyl)-2,3-dihydrospiro[indene-1,3′-pyrrolidine]-1′-yl) ketone] belongs < 25%; to `CC(C)c1ccccc1Oc1ccc2c(c1)C(O)CC21CCN(C(=O)c2ccc(F)cn2)C1` (stereo not drawn) [Example 104, (5-fluoropyridin-2-yl)(3-hydroxy-5-(2-isopropylphenyloxy)-2,3-dihydrospiro[indene-1,3′-pyrrolidine]-1′-yl) ketone], 70 to 100%; to `CCc1nccnc1Oc1ccc2c(c1)C(O)CC21CCN(C(=O)c2ccc(F)cn2)C1` (stereo not drawn) [Example 105, (5-((3-ethylpyrazin-2-yl)oxy)-3-hydroxy-2,3-dihydrospiro[indene-1,3′-pyrrolidine]-1′-yl)(5-fluoropyridin-2-yl] ketone], < 25%.
In turn, `CC(C)c1ccccc1Sc1ccc2c(c1)C(O)CC21CCN(C(=O)c2ccc(F)cn2)C1` (stereo not drawn) [Example 106, (5-fluoropyridin-2-yl)(3-hydroxy-5-((2-isopropylphenyl)thio)-2,3-dihydrospiro[indene-1,3′-pyrrolidine]-1′-yl) ketone] had an inhibition at 0.3 µM of 70 to 100%.
To `CC(C)c1ccccc1[S+]([O-])c1ccc2c(c1)C(O)CC21CCN(C(=O)c2ccc(F)cn2)C1` (stereo not drawn) [Example 107, (5-fluoropyridin-2-yl)(3-hydroxy-5-((2-isopropylphenyl)sulfoxide)-2,3-dihydrospiro[indene-1,3′-pyrrolidine]-1′-yl) ketone] belongs < 25%; to `CC(C)c1ccccc1S(=O)(=O)c1ccc2c(c1)C(O)CC21CCN(C(=O)c2ccc(F)cn2)C1` (stereo not drawn) [Example 108, (5-fluoropyridin-2-yl)(3-hydroxy-5-((2-isopropylphenyl)sulfonyl)-2,3-dihydrospiro[indene-1,3′-pyrrolidine]-1′-yl) ketone], < 25%; to `CC(C)c1ccccc1-c1ccc2c(c1)CCC21CCN(C(=O)c2ccc(F)cn2)C1` (stereo not drawn) [Example 120, (5-fluoropyridin-2-yl)(5-(2-isopropylphenyl)-2,3-dihydrospiro[indene-1,3′-pyrrolidine]-1′-yl) ketone], < 25%.
To `CC(C)c1ccccc1-c1ccc2c(c1)C(CO)CC21CCN(C(=O)c2ccc(F)cn2)C1` (stereo not drawn) [Example 126, (5-fluoropyridin-2-yl)(3-(methylol)-5-(2-isopropylphenyl)-2,3-dihydrospiro[indene-1,3′-pyrrolidine]-1′-yl) ketone] belongs 70 to 100%; to `CC(C)c1ccccc1-c1ccc2c(c1)C(C(=O)O)CC21CCN(C(=O)c2ccc(F)cn2)C1` (stereo not drawn) [Example 129, 1′-(5-fluoropyridoyl)-5-(2-isopropylphenyl)-2,3-dihydrospiro[indene-1,3′-pyrrolidine]-3-carboxylic acid], < 25%; to `COC(=O)C1CC2(CCN(C(=O)c3ccc(F)cn3)C2)c2ccc(-c3ccccc3C(C)C)cc21` (stereo not drawn) [Example 130, methyl 1′-(5-fluoropyridoyl)-5-(2-isopropylphenyl)-2,3-dihydrospiro[indene-1,3′-pyrrolidine]-3-carboxylate], < 25%.
Regarding `CC(C)c1ccccc1-c1ccc2c(c1)C(O)CC21CCN(Cc2ccc(F)cn2)C1` (stereo not drawn) [Example 134, 1′-((5-fluoropyridin-2-yl)methyl)-5-(2-isopropylphenyl)-2,3-dihydrospiro[indene-1,3′-pyrrolidine]-3-ol], the inhibition at 0.3 µM is < 25%.
As for `CC(C)c1ccccc1-c1ccc2c(c1)C(O)CC21CCN(S(=O)(=O)c2ccc(Cl)cn2)C1` (stereo not drawn) [Example 135, 1′-((5-chloropyridin-2-yl)sulfonyl)-5-(2-isopropylphenyl)-2,3-dihydrospiro[indene-1,3′-pyrrolidine]-3-ol], the inhibition at 0.3 µM was < 25%.
With `CC(C)c1ccccc1-c1ccc2c(c1)C(O)CC21CC(=O)N(Cc2ccc(F)cn2)C1` (stereo not drawn) [Example 137, 1′-((5-fluoropyridin-2-yl)methyl)-3-hydroxy-5-(2-isopropylphenyl)-2,3-dihydrospiro[indene-1,3′-pyrrolidine]-5′-one], the inhibition at 0.3 µM is < 25%.
